# Assay results published in article PMC10709440, “High-throughput ligand profile characterization in novel cell lines expressing seven heterologous insect olfactory receptors for the detection of volatile plant biomarkers” (Scientific Reports, 2023).
# Several values for one entry are separate records, joined by “and”; a condition that tells them apart may be missing. Identical values can stand only once. Like-named read-outs stand apart in the source and are kept apart here.
# Columns and labels:
# Drosophila OR10a = target: T1, Drosophila OR10a (Drosophila melanogaster, UniProt Q9VYZ1); assay: Calcium ion fluorescence (GCaMP6) assay, OR10a stable HEK293 cell line; assay type: cell-based; conditions: for DF norm AVERAGE OR10a: threshold 0.05, below shown as 0
# T1 construct: expressed in transfected cells
# T1 sequence (Q9VYZ1 1-406): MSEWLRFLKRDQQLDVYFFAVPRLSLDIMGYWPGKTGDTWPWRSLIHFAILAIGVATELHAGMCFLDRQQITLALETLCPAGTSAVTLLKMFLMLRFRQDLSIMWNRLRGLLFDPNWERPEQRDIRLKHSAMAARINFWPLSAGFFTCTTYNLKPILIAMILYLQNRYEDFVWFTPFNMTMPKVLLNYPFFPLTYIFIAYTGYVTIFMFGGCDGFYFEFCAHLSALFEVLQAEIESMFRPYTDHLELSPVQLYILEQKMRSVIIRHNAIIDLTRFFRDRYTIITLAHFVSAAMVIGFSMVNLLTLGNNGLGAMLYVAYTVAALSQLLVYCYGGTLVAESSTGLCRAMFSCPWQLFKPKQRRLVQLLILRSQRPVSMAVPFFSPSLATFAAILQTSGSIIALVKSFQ
# T1 sequence (Q9VNB5 1-486 partner): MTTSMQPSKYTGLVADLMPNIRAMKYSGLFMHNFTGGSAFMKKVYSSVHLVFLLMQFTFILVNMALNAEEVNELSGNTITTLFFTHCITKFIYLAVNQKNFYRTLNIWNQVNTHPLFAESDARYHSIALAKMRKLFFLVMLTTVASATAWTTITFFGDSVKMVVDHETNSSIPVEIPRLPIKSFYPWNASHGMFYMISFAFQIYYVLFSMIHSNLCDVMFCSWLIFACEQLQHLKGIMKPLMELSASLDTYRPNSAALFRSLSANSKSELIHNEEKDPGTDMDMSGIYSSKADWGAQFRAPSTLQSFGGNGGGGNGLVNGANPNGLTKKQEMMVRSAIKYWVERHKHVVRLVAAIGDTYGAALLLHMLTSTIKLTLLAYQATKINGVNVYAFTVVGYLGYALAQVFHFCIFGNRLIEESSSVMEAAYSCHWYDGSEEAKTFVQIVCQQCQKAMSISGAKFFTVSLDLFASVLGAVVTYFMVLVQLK
# Outline: (§1)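 HEK293 lines stably expressing each Drosophila OR with GCaMP6, doxycycline-induced (1 μg/mL) 48 or 72 h. Fluorescence recorded 5 s baseline then 30 s after VOC injection at pH 7.3; ΔF=(FMAX−F0)/F0, normalized to 50 µM VUAA1 response per line, triplicate wells averaged; concentration series 0.01–100 μM.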
# Drosophila OR85b = target: T2, Drosophila OR85b (Drosophila melanogaster, UniProt Q9VHQ7); assay: Calcium ion fluorescence (GCaMP6) assay, OR85b stable HEK293 cell line; assay type: cell-based; conditions: for Average response: VUAA1-normalized response, mean of biological replicates
# T2 construct: expressed in transfected cells
# T2 sequence (Q9VHQ7 1-390): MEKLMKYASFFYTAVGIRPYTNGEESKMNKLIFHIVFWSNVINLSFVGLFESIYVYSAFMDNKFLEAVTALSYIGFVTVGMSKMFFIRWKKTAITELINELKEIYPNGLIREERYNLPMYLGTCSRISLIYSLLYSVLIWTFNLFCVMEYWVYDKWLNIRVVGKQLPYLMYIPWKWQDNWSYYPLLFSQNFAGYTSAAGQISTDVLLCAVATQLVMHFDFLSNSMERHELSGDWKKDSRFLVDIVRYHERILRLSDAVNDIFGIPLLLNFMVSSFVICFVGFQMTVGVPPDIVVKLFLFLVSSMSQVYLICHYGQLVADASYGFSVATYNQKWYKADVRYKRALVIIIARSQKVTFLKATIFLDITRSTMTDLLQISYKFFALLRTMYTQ
# T2 sequence (Q9VNB5 1-486 partner): T1 sequence (Q9VNB5 1-486 partner)
# Outline: as §1
# [1] = HEK293, 1 μM VOC, 50 μM VUAA1 = 1, responses not exceeding 0.05 considered 0, read-out: OR10a Average response (VUAA1-normalized)
# [2] = HEK293, 10 μM VOC, 50 μM VUAA1 = 1, responses not exceeding 0.05 considered 0, read-out: OR10a Average response (VUAA1-normalized)
# [3] = HEK293, 100 μM VOC, 50 μM VUAA1 = 1, responses not exceeding 0.05 considered 0, read-out: OR10a Average response (VUAA1-normalized)
# [4] = ligand concentration 1 (unit not given)
# [5] = ligand concentration 10 (unit not given)
# [6] = ligand concentration 100 (unit not given)
# [7] = HEK293, read-out: OR85b Average response (VUAA1-normalized)
# [8] = ligand concentration 1 (unit not given), threshold 0.05, below shown as 0
# [9] = ligand concentration 10 (unit not given), threshold 0.05, below shown as 0
# [10] = ligand concentration 100 (unit not given), threshold 0.05, below shown as 0
# [11] = HEK293, read-out: OR10a response (VUAA1-normalized response), VOC concentration 1 μM
# [12] = HEK293, read-out: OR10a response (VUAA1-normalized response), VOC concentration 10 μM
# [13] = HEK293, read-out: OR10a response (VUAA1-normalized response), VOC concentration 100 μM
# [14] = HEK293, read-out: OR85b response (VUAA1-normalized response)
smiles,measurement,setting,value
COC(=O)c1ccccc1O [methyl salicylate],EC50,"Drosophila OR10a; AVERAGE EC50, from the average LOG EC50 of 5 biological replicates, unit inferred",75.5 nM
same,EC50,"Drosophila OR10a; EC50, FITTED AVERAGE CURVE, fit of the averaged dose-response curve, unit inferred",68.6 nM
same,EC50,"Drosophila OR10a; EC50, OR10a cell line, fitted Hill equation, Hill coefficient constrained to 1, maximal response max 1",80 nM
same,EC50,"Drosophila OR10a; EC50 AVERAGE (arithmetic average of fitted EC50), average of 5 biological replicates, unit inferred",90.1 nM
same,activation at 1 µM,Drosophila OR10a; [1],49%
same,activation at 10 µM,Drosophila OR10a; [2],55%
same,activation at 100 µM,Drosophila OR10a; [3],95%
same,Emax,"Drosophila OR10a; HEK293, read-out: VUAA1 normalized MAX response",44%
same,"n, FITTED AVERAGE CURVE",Drosophila OR10a; Hill coefficient of the fit of the averaged curve,0.855
same,OR10a response (VUAA1-normalized) at 1 μM,"Drosophila OR10a; OR10a cell line, VOC concentration 1 μM",0.49
same,OR10a response (VUAA1-normalized) at 10 μM,"Drosophila OR10a; OR10a cell line, VOC concentration 10 μM",0.55
same,OR10a response (VUAA1-normalized) at 100 μM,"Drosophila OR10a; OR10a cell line, VOC concentration 100 μM",0.95
same,AVERAGE MAX,Drosophila OR10a; average of 5 biological replicates,0.4437
same,"response, AVERAGE","Drosophila OR10a; concentration 0.008, average of biological replicates",0.06886
same,"response, AVERAGE","Drosophila OR10a; concentration 0.016, average of biological replicates",0.1014
same,"response, AVERAGE","Drosophila OR10a; concentration 0.032, N 1",0.1576
same,"response, AVERAGE","Drosophila OR10a; concentration 0.075, average of biological replicates",0.2051
same,"response, AVERAGE","Drosophila OR10a; concentration 0.15, average of biological replicates",0.2778
same,"response, AVERAGE","Drosophila OR10a; concentration 0.3, average of biological replicates",0.4027
same,"response, AVERAGE","Drosophila OR10a; concentration 0.6, average of biological replicates",0.307
same,"response, AVERAGE","Drosophila OR10a; concentration 1.25, average of biological replicates",0.417
same,"response, AVERAGE","Drosophila OR10a; concentration 2.5, average of biological replicates",0.471
same,"response, AVERAGE","Drosophila OR10a; concentration 5, average of biological replicates",0.4362
same,"response, AVERAGE","Drosophila OR10a; concentration 10, average of biological replicates",0.4759
same,"response, AVERAGE","Drosophila OR10a; concentration 20, average of biological replicates",0.4313
same,"response, AVERAGE","Drosophila OR10a; concentration 40, average of biological replicates",0.3644
same,"MAX, fitted average curve",Drosophila OR10a; fit of the averaged dose-response curve,0.4394
same,MAX (fitted parameter),"Drosophila OR10a; individual biological replicates, normalized response",0.4829 and 0.2572 and 0.5237 and 0.5964 and 0.3582
same,DF norm AVERAGE OR10a,Drosophila OR10a; [4],0.4904
same,DF norm AVERAGE OR10a,Drosophila OR10a; [5],0.5549
same,DF norm AVERAGE OR10a,Drosophila OR10a; [6],0.9525
same,activation at 1 µM,Drosophila OR85b; [7],0%
same,activation at 10 µM,Drosophila OR85b; [7],3%
same,activation at 100 µM,Drosophila OR85b; [7],13%
same,OR85b response (VUAA1-normalized) at 1 μM,"Drosophila OR85b; OR85b cell line, VOC concentration 1 μM",0.00
same,OR85b response (VUAA1-normalized) at 10 μM,"Drosophila OR85b; OR85b cell line, VOC concentration 10 μM",0.00
same,OR85b response (VUAA1-normalized) at 100 μM,"Drosophila OR85b; OR85b cell line, VOC concentration 100 μM",0.13
same,Average response,"Drosophila OR85b; OR85b cell line, cc. 1 µM",0.00
same,Average response,"Drosophila OR85b; OR85b cell line, cc. 10 µM",0.0263
same,Average response,"Drosophila OR85b; OR85b cell line, cc. 100 µM",0.13
same,DF norm AVERAGE OR85b,Drosophila OR85b; [8],0
same,DF norm AVERAGE OR85b,Drosophila OR85b; [9],0
same,DF norm AVERAGE OR85b,Drosophila OR85b; [10],0.1286
CC(=O)OCCC(C)C [isopentyl acetate],activation at 1 µM,Drosophila OR10a; [1],9%
same,activation at 10 µM,Drosophila OR10a; [2],19%
same,activation at 100 µM,Drosophila OR10a; [3],10%
same,activation at 1 µM,Drosophila OR10a; [11],9%
same,activation at 10 µM,Drosophila OR10a; [12],19%
same,activation at 100 µM,Drosophila OR10a; [13],10%
same,DF norm AVERAGE OR10a,Drosophila OR10a; [4],0.08825
same,DF norm AVERAGE OR10a,Drosophila OR10a; [5],0.1921
same,DF norm AVERAGE OR10a,Drosophila OR10a; [6],0.101
same,activation at 1 µM,Drosophila OR85b; [14],0%
same,activation at 10 µM,Drosophila OR85b; [14],7%
same,activation at 100 µM,Drosophila OR85b; [14],0%
same,Average response,"Drosophila OR85b; OR85b cell line, cc. 1 µM",0.00
same,Average response,"Drosophila OR85b; OR85b cell line, cc. 10 µM",0.07
same,Average response,"Drosophila OR85b; OR85b cell line, cc. 100 µM",0.0239
same,DF norm AVERAGE OR85b,Drosophila OR85b; [8],0
same,DF norm AVERAGE OR85b,Drosophila OR85b; [9],0.07146
same,DF norm AVERAGE OR85b,Drosophila OR85b; [10],0
C=C(C)[C@H]1CC=C(C)CC1 [limonene],OR10a Average response (VUAA1-normalized),"Drosophila OR10a; 1 μM VOC, 50 μM VUAA1 = 1, responses not exceeding 0.05 considered 0",0.00
same,OR10a Average response (VUAA1-normalized),"Drosophila OR10a; 10 μM VOC, 50 μM VUAA1 = 1, responses not exceeding 0.05 considered 0",0.00
same,OR10a Average response (VUAA1-normalized),"Drosophila OR10a; 100 μM VOC, 50 μM VUAA1 = 1, responses not exceeding 0.05 considered 0",0.06
same,OR10a response (VUAA1-normalized response),Drosophila OR10a; VOC concentration 1 μM,0.00
same,OR10a response (VUAA1-normalized response),Drosophila OR10a; VOC concentration 10 μM,0.00
same,OR10a response (VUAA1-normalized response),Drosophila OR10a; VOC concentration 100 μM,0.06
same,DF norm AVERAGE OR10a,Drosophila OR10a; [4],0
same,DF norm AVERAGE OR10a,Drosophila OR10a; [5],0
same,DF norm AVERAGE OR10a,Drosophila OR10a; [6],0.05729
same,Average response,"Drosophila OR85b; OR85b cell line, cc. 1 µM",0.07
same,Average response,"Drosophila OR85b; OR85b cell line, cc. 10 µM",0.09
same,Average response,"Drosophila OR85b; OR85b cell line, cc. 100 µM",0.0644
same,OR85b response (VUAA1-normalized response),Drosophila OR85b; VOC concentration 1 μM,0.07
same,OR85b response (VUAA1-normalized response),Drosophila OR85b; VOC concentration 10 μM,0.09
same,OR85b response (VUAA1-normalized response),Drosophila OR85b; VOC concentration 100 μM,0.0644
same,DF norm AVERAGE OR85b,Drosophila OR85b; [8],0.07022
same,DF norm AVERAGE OR85b,Drosophila OR85b; [9],0.08814
same,DF norm AVERAGE OR85b,Drosophila OR85b; [10],0.06443
Cc1ccc(O)cc1 [4-methylphenol],activation at 1 µM,Drosophila OR10a; [1],2.37%
same,activation at 10 µM,Drosophila OR10a; [2],1.81%
same,activation at 100 µM,Drosophila OR10a; [3],6.62%
same,activation at 1 µM,Drosophila OR10a; [11],0%
same,activation at 10 µM,Drosophila OR10a; [12],0%
same,activation at 100 µM,Drosophila OR10a; [13],6.62%
same,activation at 1 µM,Drosophila OR85b; [14],0%
same,activation at 10 µM,Drosophila OR85b; [14],0%
same,activation at 100 µM,Drosophila OR85b; [14],0%
same,Average response,"Drosophila OR85b; OR85b cell line, cc. 1 µM",0.00
same,Average response,"Drosophila OR85b; OR85b cell line, cc. 10 µM",0.04
same,Average response,"Drosophila OR85b; OR85b cell line, cc. 100 µM",0.00
same,DF norm AVERAGE OR85b,"Drosophila OR85b; concentration 1, normalized fluorescence change, values below 0.05 threshold given as 0",0
same,DF norm AVERAGE OR85b,"Drosophila OR85b; concentration 10, normalized fluorescence change, values below 0.05 threshold given as 0",0
same,DF norm AVERAGE OR85b,"Drosophila OR85b; concentration 100, normalized fluorescence change, values below 0.05 threshold given as 0",0
